Results taken from patent US12435109B2, “Compositions and methods for dissolving protein aggregates” (REJUKON BIOPHARM INC., priority 2020, dated 2025).
Entries after “also recorded” stand apart in the source; their conditions may differ.

Assays:
[1] = system: TDP-43 protein aggregates in SH-SY5Y cells; assay: TDP-43 protein aggregates in heat-shocked SH-SY5Y cell model overexpressing TDP-43-mCherry; type: cell-based; conditions: SH-SY5Y overexpressing TDP-43-mCherry, heat shock 42° C. 1 hour, 1 μg polypeptide-plasmid
Procedure: Polypeptides RJK001˜RJK004 and control polypeptides RJK005˜RJK007 were transfected into the SH-SY5Y cell model overexpressing TDP-43-mCherry after heat stimulation. The staining of G3BP1 represents the stress granule.
(§1) An SH-SY5Y cell model that overexpresses FUS-GFP protein or TDP-43-mCherry protein was generated using the following steps:
SH-SY5Y cells were cultured in DMEM/F12 medium containing 10% fetal bovine serum in a 37° C., 5% carbon dioxide incubator. After the cell confluence reaches 80%, the culture medium was removed using a vacuum pump or pipette. The cells were washed once with PBS. Add trypsin-EDTA (0.05%) to the culture dish and incubate it in a 37° C. cell incubator for 1 min. Add twice the volume of culture medium to stop the digestion, and gently blow the cells to suspend the cells into a uniform cell suspension. Add the cell suspension to a 15 mL centrifuge tube and centrifuge at 1200 rpm for 3 minutes. Discard the supernatant and resuspend the cells in fresh complete medium. […]
The SH-SY5Y cell model (initially cultured at 37° C.) transfected with the TDP-43 plasmid prepared according to Example 2 was placed in a 42° C. incubator for 1 hour for heat shock treatment to cause the TDP43 protein to separate and aggregate. […] Laser confocal fluorescence microscopy was used to observe the accumulation of TDP-43 and cell-endogenous G3BP1 in SH-SY5Y cells.

[2] = system: SOD1(G93A)-GFP protein aggregates in motor neurons; assay: SOD1(G93A) protein aggregates in primary cultured motor neurons, live imaging; type: cell-based, rat; conditions: 20 μM polypeptide
Procedure: Real-time imaging technology using fluorescence microscope was used to observe the cell culture. The left panel is the polypeptide RJK001; the right panel is the control polypeptide RJK005. […] The right image in each panel is the microscopic image at 24 hours after adding the polypeptides.
(§2) An ALS rat motor neuron model that can be used to overexpress FUS-GFP protein and SOD1 (G93A) protein was generated using the following steps.
After the E13.5 rat is anesthetized, open the abdominal cavity and take out the uterus to a 10 cm dish. Add HBSS, use scissors and tweezers to remove the embryos to a new 10 cm dish. Separate the head and trunk of the embryo and move to anatomical spinal cord under a stereoscope. With the torso facing up, fix the hind limbs with a microscopic forceps. After finding the translucent spine, use another microscopic forceps to lift the skin forward and upward, and then open the connection on the side of the spine. Pick up the spine from the tail. Fix the head of the spine with the back side facing up and pick up the membrane. Turn the abdomen up, peel off the membrane, most of the DRG was removed. […]
A rat motor neuron model of ALS pathogenic SOD1 (G93A) protein aggregates was prepared according to Example 4. […] The dissolution effect of the polypeptides on proteins aggregates in motor neurons was recorded with live images using laser confocal fluorescence microscope. […]

[3] = system: FUS protein aggregates in SH-SY5Y cells; assay: FUS protein aggregates in heat-shocked SH-SY5Y cell model overexpressing FUS; type: cell-based; conditions: heat shock 42° C. 1 hour, 1 μg polypeptide-plasmid
Excerpt: Polypeptides RJK001˜RJK004 and control polypeptides RJK005˜RJK007 were transfected into the SH-SY5Y cell model overexpressing FUS-mCherry after heat stimulation. The staining of G3BP1 represents the stress granule.
Polypeptides RJG001˜RJG003 and control polypeptide RJK005 were transfected into the SH-SY5Y cell model overexpressing FUS-mCherry after heat stimulation. The staining of G3BP1 represents the stress granule.
as §1
SH-SY5Y cells were cultured in DMEM/F12 medium containing 10% fetal bovine serum in a 37° C., 5% carbon dioxide incubator. […]
(§3) The SH-SY5Y cell model (initially cultured at 37° C.) transfected with the FUS plasmid according to Example 2 was placed in a 42° C. incubator for 1 hour for heat shock treatment to cause FUS protein aggregation. […] Laser confocal fluorescence microscope was used to observe the accumulation of overexpressed FUS in SH-SY5Y cells.
as §3

[4] = system: FUS-GFP protein aggregates in motor neurons; assay: FUS-GFP protein aggregates in primary cultured motor neurons, live imaging; type: cell-based, rat; conditions: 20 μM polypeptide
Procedure: Real-time imaging technology using fluorescence microscope was used to observe the cell culture. […] The left 2-3 images are the microscopic images when the polypeptides were just added (0 min); the middle images are the microscopic images at different time points (30 minutes, 60 minutes, 90 minutes) after the polypeptides were added, and the right image is the microscopic image at 120 minutes after adding the polypeptides.
as §2
After the E13.5 rat is anesthetized, open the abdominal cavity and take out the uterus to a 10 cm dish. Add HBSS, use scissors and tweezers to remove the embryos to a new 10 cm dish. Separate the head and trunk of the embryo and move to anatomical spinal cord under a stereoscope. With the torso facing up, fix the hind limbs with a microscopic forceps. After finding the translucent spine, use another microscopic forceps to lift the skin forward and upward, and then open the connection on the side of the spine. Pick up the spine from the tail. Fix the head of the spine with the back side facing up and pick up the membrane. Turn the abdomen up, peel off the membrane, most of the DRG was removed. Remove the DRG attached to the spinal cord and move to a new 6 cm dish. Use micro tweezers to move the spinal cord to a 5 ml centrifuge tube, use tweezers to crush it to a size of 1 mm, add 1× Trypsin (diluted by HBSS), and place in a 37° C. incubator for 25-30 minutes. Use a 1 ml pipette tip to suck the tissue mass into the preheated 3 ml MN Medium and blow away the tissue mass. Pass the 40 um filer, transfer the cells to a 5 ml centrifuge tube, centrifuge at 400 g, 5 min to remove the supernatant. Resuspend the cells in 3 mlMN medium, take 10 ul and count. […]
A rat motor neuron model of ALS pathogenic FUS protein aggregates was prepared according to Example 4. […] The dissolution effect of the polypeptides on proteins aggregates in motor neurons was recorded with live images using laser confocal fluorescence microscope. […]

[5] = system: TIA1 protein aggregates in SH-SY5Y cells; assay: TIA1 protein aggregates in heat-shocked SH-SY5Y cell model; type: cell-based; conditions: heat shock 42° C. 1 hour, 1 μg polypeptide-plasmid

In the case of “TEPQEESEEEVEEPEERQQTPEVVPDDSGTFYDQTVSNDLE [RJK001, polypeptide capable of dissolving protein aggregates]”, the “dissolution of TDP-43 protein aggregates / number of phase-separated droplets of TDP-43 protein in SH-SY5Y cells versus control” value [1] is reported as “significantly less; also recorded: significant dissolving effect”, the “aggregation of SOD1 (G93A) protein in motor neurons at 24 hours after adding polypeptide” value [2] is reported as “dissolved significantly” and the “dissolving effect on SOD1 (G93A) protein aggregates in motor neurons” value ([2]; motor neurons, day 10 in vitro, 24 hours) is reported as “significant dissolving effect; also recorded: enhanced the dissolution”. The “dissolution of FUS protein aggregates / number of phase-separated droplets of FUS protein in SH-SY5Y cells versus control” value [3] was “significantly less; also recorded: significant dissolving effect”, the “aggregation of ALS pathogenic FUS protein in motor neurons at 90 minutes after adding polypeptide” value ([4]; 90 minutes) was “began to dissolve significantly” and the “aggregation of ALS pathogenic FUS protein in motor neurons after 120 minutes” value ([4]; 120 minutes) was “essentially dissolved”. The “dissolving effect on FUS protein aggregates in motor neurons” value ([4]; motor neurons, day 10 in vitro, up to 120 minutes) was “significant dissolving effect; also recorded: enhanced the dissolution” and the “dissolution of TIA1 protein aggregates / number of phase-separated droplets of TIA1 protein in SH-SY5Y cells versus control” value [5] was “significantly less; also recorded: significant dissolving effect”.
